Measurements: patent US11059794B2, “Heterocyclic compounds useful as dual ATX/CA inhibitors” (Hoffmann-La Roche Inc., priority 2017, dated 2021)

How the values were obtained:
[1] = target: ATX (human His-tagged) (Homo sapiens (Human), UniProt Q13822); assay: Human ATX enzyme inhibition assay (fluorescence quenching, MR121 substrate); assay type: biochemical; details: 30 nM ATX, 1 μM MR121 substrate, 30° C.
[2] = target: Human carbonic anhydrase II (hCA-II) (Homo sapiens (Human), UniProt P00918); assay: Human carbonic anhydrase-II inhibition assay (absorbance, 4-nitrophenyl acetate substrate); assay type: biochemical; details: 8 nM hCA II, 2.5 mM 4-NPA, absorbance 340 nm, 1 hour room temperature; read-out: CA-II IC50

Compound	IC50 [1] [nM]	IC50 [2] [nM]
Cc1nnn(Cc2cc(Cl)cnc2COC(=O)N2CCC(S(=O)(=O)c3ccc(S(N)(=O)=O)cc3F)CC2)n1 [Example 1.03, [5-chloro-3-[(5-methyltetrazol-2-yl)methyl]pyridin-2-yl]methyl 4-(2-fluoro-4-sulfamoylphenyl)sulfonylpiperidine-1-carboxylate]	73	–
Cc1nnn(Cc2cc(C(F)(F)F)ccc2COC(=O)N2CCC(S(=O)(=O)c3ccc(S(N)(=O)=O)cc3F)CC2)n1 [Example 1.04, [2-[(5-methyltetrazol-2-yl)methyl]-4-(trifluoromethyl)phenyl]methyl 4-(2-fluoro-4-sulfamoylphenyl)sulfonylpiperidine-1-carboxylate]	8	–
NS(=O)(=O)c1ccc(CN2CCN(C(=O)c3cc(OCC4CCOCC4)nc(C4CC4)c3)CC2)c(F)c1 [Example 2.02, 4-[[4-[2-cyclopropyl-6-(oxan-4-ylmethoxy)pyridine-4-carbonyl]piperazin-1-yl]methyl]-3-fluorobenzenesulfonamide]	7	15.5
Cc1nnn(Cc2cc(C(F)(F)F)ccc2CCC(=O)N2CCC(CC[S+]([O-])c3ncc(S(N)(=O)=O)s3)CC2)n1 (stereo not shown) [Example 6.06, 2-[2-[1-[3-[2-[(5-methyltetrazol-2-yl)methyl]-4-(trifluoromethyl)phenyl]propanoyl]piperidin-4-yl]ethylsulfinyl]-1,3-thiazole-5-sulfonamide]	4	14
Cc1nnn(Cc2cc(OC(F)F)ccc2CCC(=O)N2CCC(CC[S+]([O-])c3ccc(S(N)(=O)=O)c(F)c3F)CC2)n1 (stereo not shown) [Example 6.42, 4-[2-[1-[3-[4-(difluoromethoxy)-2-[(5-methyltetrazol-2-yl)methyl]phenyl]propanoyl]piperidin-4-yl]ethylsulfinyl]-2,3-difluorobenzenesulfonamide]	3	–
Cc1nnn(Cc2cc(C(F)(F)F)ccc2CCC(=O)N2CCC(CC[S+]([O-])c3ccc(S(N)(=O)=O)c(F)c3F)CC2)n1 (stereo not shown) [Example 6.43, 2,3-difluoro-4-[2-[1-[3-[2-[(5-methyltetrazol-2-yl)methyl]-4-(trifluoromethyl)phenyl]propanoyl]piperidin-4-yl]ethylsulfinyl]benzenesulfonamide]	6	–
Cc1nnn(Cc2cc(OC(F)F)ccc2CCC(=O)N2CCC(CC[S+]([O-])c3ncc(S(N)(=O)=O)s3)CC2)n1 (stereo not shown) [Example 6.44, 2-[2-[1-[3-[4-(difluoromethoxy)-2-[(5-methyltetrazol-2-yl)methyl]phenyl]propanoyl]piperidin-4-yl]ethylsulfinyl]-1,3-thiazole-5-sulfonamide]	7	–
Cc1nnn(Cc2cc(C(F)(F)F)ccc2CCC(=O)N2CCN(Cc3ccc(S(N)(=O)=O)cc3)CC2)n1 [Example 9.00, 4-[[4-[3-[2-[(5-Methyltetrazol-2-yl)methyl]-4-(trifluoromethyl)phenyl]propanoyl]piperazin-1-yl]methyl]benzenesulfonamide]	27	–
